Assay results from the supplement of paper PMC10627819.

Key:
[1] = tested on: S. aureus DSM 20231; assay: fitness (endpoint OD595 vs no drug) (fraction); higher = more growth
How it was run: (§1)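 In 384-well plates at 37 °C, cultures began at OD595 0.01 in 30 µl, with 55 µl used for S. pneumoniae. OD595 readings every 30 min for 14 h were corrected by the first reading. Fitness divides the stationary-phase transition optical density by the robust mean of no-drug control wells. The result is capped at 1.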

[2] = tested on: S. aureus Newman; assay: as above
How it was run: as §1

[3] = tested on: S. pneumoniae D39V; assay: as above
How it was run: as §1

[4] = tested on: B. subtilis 168; assay: Bliss interaction score (quartile over a dose matrix) (fitness difference); higher = more antagonism (negative = synergy)
How it was run: (§2)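 Each plate was normalised to the robust mean of its own no-drug wells, using OD595 at entry into stationary phase, with values capped at 1. This normalised growth is the fitness value. The Bliss score is the difference between observed and product-expected fitness, with single-drug fitness inferred from the combination data and quartiles taken over technical, biological and donor/recipient replicates.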

[5] = tested on: S. aureus DSM 20231; assay: as above
How it was run: as §2

[6] = tested on: S. aureus Newman; assay: as above
How it was run: as §2

[7] = tested on: S. pneumoniae D39V; assay: as above
How it was run: as §2

[8] = first compound 0.625 µg/mL, partner 0.0625 µg/mL
[9] = first compound 0.625 µg/mL, partner 0.125 µg/mL
[10] = first compound 1.25 µg/mL, partner 0.0625 µg/mL
[11] = first compound 1.25 µg/mL, partner 0.125 µg/mL
[12] = first compound 2.5 µg/mL, partner 0.0625 µg/mL
[13] = first compound 2.5 µg/mL, partner 0.125 µg/mL
[14] = first compound 0.625 µg/mL, partner 0.1875 µg/mL
[15] = first compound 0.625 µg/mL, partner 0.375 µg/mL
[16] = first compound 0.625 µg/mL, partner 0.75 µg/mL
[17] = first compound 1.25 µg/mL, partner 0.1875 µg/mL
[18] = first compound 1.25 µg/mL, partner 0.375 µg/mL
[19] = first compound 1.25 µg/mL, partner 0.75 µg/mL
[20] = first compound 2.5 µg/mL, partner 0.1875 µg/mL
[21] = first compound 2.5 µg/mL, partner 0.375 µg/mL
[22] = first compound 2.5 µg/mL, partner 0.75 µg/mL
[23] = first compound 0.078 µg/mL, partner 0.1562 µg/mL, main component drawn
[24] = first compound 0.078 µg/mL, partner 0.3125 µg/mL, main component drawn
[25] = first compound 0.078 µg/mL, partner 0.625 µg/mL, main component drawn
[26] = first compound 0.156 µg/mL, partner 0.1562 µg/mL, main component drawn
[27] = first compound 0.156 µg/mL, partner 0.3125 µg/mL, main component drawn
[28] = first compound 0.156 µg/mL, partner 0.625 µg/mL, main component drawn
[29] = first compound 0.312 µg/mL, partner 0.1562 µg/mL, main component drawn
[30] = first compound 0.312 µg/mL, partner 0.3125 µg/mL, main component drawn
[31] = first compound 0.312 µg/mL, partner 0.625 µg/mL, main component drawn
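Wherever Bliss interaction score (quartile over a dose matrix) is given: first quartile when negative (synergy) and third quartile when positive (antagonism).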

COc1cccc2c1C(=O)c1c(O)c3c(c(O)c1C2=O)C[C@@](O)(C(=O)CO)C[C@@H]3O[C@H]1C[C@H](N)[C@H](O)[C@H](C)O1 [Doxorubicin] + Cn1nnc(-c2ccc(-c3ccc(N4C[C@H](CO)OC4=O)cc3F)cn2)n1 [Tedizolid]
fitness [1, 8]: 0.813 | fitness [1, 9]: 0.728 | fitness ([1]; first compound 0.625 µg/mL, partner 0.25 µg/mL): 0.339 | fitness [1, 10]: 0.783 | fitness [1, 11]: 0.7 | fitness ([1]; first compound 1.25 µg/mL, partner 0.25 µg/mL): 0.374 | fitness [1, 12]: 0.738 | fitness [1, 13]: 0.673 | fitness [2, 8]: 0.786 | fitness [2, 9]: 0.758 | fitness [2, 10]: 0.751 | fitness [2, 11]: 0.731 | fitness [2, 12]: 0.693 | fitness [2, 13]: 0.655 | fitness ([3]; first compound 0.25 µg/mL, partner 0.03125 µg/mL): 0.897 | fitness ([3]; first compound 0.25 µg/mL, partner 0.0625 µg/mL): 0.909 | fitness ([3]; first compound 0.25 µg/mL, partner 0.125 µg/mL): 0.747 | fitness ([3]; first compound 0.25 µg/mL, partner 0.25 µg/mL): 0.288 | fitness ([3]; first compound 0.25 µg/mL, partner 0.5 µg/mL): 0.131 | fitness ([3]; first compound 0.5 µg/mL, partner 0.03125 µg/mL): 0.903 | fitness ([3]; first compound 0.5 µg/mL, partner 0.0625 µg/mL): 0.938 | fitness ([3]; first compound 0.5 µg/mL, partner 0.125 µg/mL): 0.748 | fitness ([3]; first compound 0.5 µg/mL, partner 0.25 µg/mL): 0.288 | fitness ([3]; first compound 0.5 µg/mL, partner 0.5 µg/mL): 0.114 | fitness ([3]; first compound 1 µg/mL, partner 0.03125 µg/mL): 0.917 | fitness ([3]; first compound 1 µg/mL, partner 0.0625 µg/mL): 0.953 | fitness ([3]; first compound 1 µg/mL, partner 0.125 µg/mL): 0.774 | fitness ([3]; first compound 1 µg/mL, partner 0.25 µg/mL): 0.282 | fitness ([3]; first compound 1 µg/mL, partner 0.5 µg/mL): 0.11 | Bliss interaction score [4]: 0.0912 | Bliss interaction score [5]: -0.0759 | Bliss interaction score [6]: -0.0534 | Bliss interaction score [7]: -0.0807

Cc1ncc([N+](=O)[O-])n1CCO [Metronidazole] + CN[C@H](CC(C)C)C(=O)N[C@H]1C(=O)N[C@@H](CC(N)=O)C(=O)N[C@H]2C(=O)N[C@H]3C(=O)N[C@H](C(=O)N[C@H](C(=O)O)c4cc(O)cc(O)c4-c4cc3ccc4O)[C@H](O)c3ccc(c(Cl)c3)Oc3cc2cc(c3O[C@@H]2O[C@H](CO)[C@@H](O)[C@H](O)[C@H]2O[C@H]2C[C@](C)(N)[C@H](O)[C@H](C)O2)Oc2ccc(cc2Cl)[C@H]1O [Vancomycin]
fitness [1, 14]: ≥ 1 | fitness [1, 15]: ≥ 1 | fitness [1, 16]: ≥ 1 | fitness [1, 17]: ≥ 1 | fitness [1, 18]: ≥ 1 | fitness [1, 19]: ≥ 1 | fitness [1, 20]: ≥ 1 | fitness [1, 21]: 1 | fitness [1, 22]: 0.995 | fitness [2, 14]: 0.987 | fitness [2, 15]: ≥ 1 | fitness [2, 16]: ≥ 1 | fitness ([2]; first compound 0.781 µg/mL, partner 0.1875 µg/mL, one replicate): ≥ 1 | fitness ([2]; first compound 0.781 µg/mL, partner 0.375 µg/mL, one replicate): ≥ 1 | fitness ([2]; first compound 0.781 µg/mL, partner 0.75 µg/mL, one replicate): ≥ 1 | fitness [2, 17]: 0.968 | fitness [2, 18]: ≥ 1 | fitness [2, 19]: 0.953 | fitness ([2]; first compound 1.562 µg/mL, partner 0.1875 µg/mL, one replicate): ≥ 1 | fitness ([2]; first compound 1.562 µg/mL, partner 0.375 µg/mL, one replicate): 0.995 | fitness ([2]; first compound 1.562 µg/mL, partner 0.75 µg/mL, one replicate): 0.99 | fitness [2, 20]: ≥ 1 | fitness [2, 21]: ≥ 1 | fitness [2, 22]: ≥ 1 | fitness ([2]; first compound 3.124 µg/mL, partner 0.1875 µg/mL, one replicate): 0.995 | fitness ([2]; first compound 3.124 µg/mL, partner 0.375 µg/mL, one replicate): 0.99 | fitness ([2]; first compound 3.124 µg/mL, partner 0.75 µg/mL, one replicate): ≥ 1 | fitness ([3]; first compound 1.073 µg/mL, partner 0.125 µg/mL): ≥ 1 | fitness ([3]; first compound 1.073 µg/mL, partner 0.5 µg/mL): 0.0194 | fitness ([3]; first compound 1.25 µg/mL, partner 0.03125 µg/mL): 0.992 | fitness [3, 10]: 0.959 | fitness [3, 11]: 0.825 | fitness ([3]; first compound 2.145 µg/mL, partner 0.125 µg/mL): 0.895 | fitness ([3]; first compound 2.145 µg/mL, partner 0.5 µg/mL): 0.0439 | fitness ([3]; first compound 2.5 µg/mL, partner 0.03125 µg/mL): ≥ 1 | fitness [3, 12]: 0.966 | fitness [3, 13]: 0.807 | fitness ([3]; first compound 4.29 µg/mL, partner 0.125 µg/mL): ≥ 1 | fitness ([3]; first compound 4.29 µg/mL, partner 0.5 µg/mL): 0.108 | fitness ([3]; first compound 5 µg/mL, partner 0.03125 µg/mL): 0.986 | fitness ([3]; first compound 5 µg/mL, partner 0.0625 µg/mL): 0.938 | fitness ([3]; first compound 5 µg/mL, partner 0.125 µg/mL): 0.792 | Bliss interaction score [4]: 0.0651 | Bliss interaction score [5]: 0.033 | Bliss interaction score [6]: 0.0696 | Bliss interaction score [7]: 0.123

CO/N=C(\C(=O)N[C@@H]1C(=O)N2C(C(=O)O)=C(COC(C)=O)CS[C@H]12)c1csc(N)n1 [Cefotaxime] + CCCCCCCCCC(=O)N[C@@H]1[C@H]([C@@H]([C@H](O[C@H]1OC2=C3C=C4C=C2OC5=C(C=C(C=C5)[C@H]([C@H]6C(=O)N[C@@H](C7=C(C(=CC(=C7)O)OC8[C@H]([C@H]([C@@H]([C@H](O8)CO)O)O)O)C9=C(C=CC(=C9)[C@H](C(=O)N6)NC(=O)[C@@H]4NC(=O)[C@@H]1C2=CC(=CC(=C2)OC2=C(C=CC(=C2)[C@H](C(=O)N[C@H](CC2=CC(=C(O3)C=C2)Cl)C(=O)N1)N)O)O)O)C(=O)O)O[C@H]1[C@@H]([C@H]([C@@H]([C@H](O1)CO)O)O)NC(=O)C)Cl)CO)O)O [Teicoplanin]
fitness ([1]; first compound 0.039 µg/mL, partner 0.1562 µg/mL, one replicate, main component drawn): 0.672 | fitness ([1]; first compound 0.039 µg/mL, partner 0.3125 µg/mL, one replicate, main component drawn): 0.754 | fitness ([1]; first compound 0.039 µg/mL, partner 0.625 µg/mL, one replicate, main component drawn): 0.786 | fitness [1, 23]: 0.791 | fitness [1, 24]: 0.828 | fitness [1, 25]: 0.826 | fitness [1, 26]: 0.705 | fitness [1, 27]: 0.775 | fitness [1, 28]: 0.716 | fitness [1, 29]: 0.667 | fitness [1, 30]: 0.665 | fitness [1, 31]: 0.663 | fitness ([2]; first compound 0.039 µg/mL, partner 0.62 µg/mL, one replicate, main component drawn): 0.563 | fitness ([2]; first compound 0.039 µg/mL, partner 1.24 µg/mL, one replicate, main component drawn): 0.614 | fitness ([2]; first compound 0.039 µg/mL, partner 2.48 µg/mL, one replicate, main component drawn): 0.405 | fitness [2, 23]: 0.684 | fitness [2, 24]: 0.672 | fitness ([2]; first compound 0.078 µg/mL, partner 0.62 µg/mL, one replicate, main component drawn): 0.592 | fitness [2, 25]: 0.574 | fitness ([2]; first compound 0.078 µg/mL, partner 1.24 µg/mL, one replicate, main component drawn): 0.531 | fitness ([2]; first compound 0.078 µg/mL, partner 2.48 µg/mL, one replicate, main component drawn): 0.203 | fitness [2, 26]: 0.52 | fitness [2, 27]: 0.498 | fitness ([2]; first compound 0.156 µg/mL, partner 0.62 µg/mL, one replicate, main component drawn): 0.459 | fitness [2, 28]: 0.46 | fitness ([2]; first compound 0.156 µg/mL, partner 1.24 µg/mL, one replicate, main component drawn): 0.487 | fitness ([2]; first compound 0.156 µg/mL, partner 2.48 µg/mL, one replicate, main component drawn): 0.094 | fitness [2, 29]: 0.343 | fitness [2, 30]: 0.356 | fitness ([2]; first compound 0.312 µg/mL, partner 0.62 µg/mL, one replicate, main component drawn): 0.453 | fitness [2, 31]: 0.315 | fitness ([2]; first compound 0.312 µg/mL, partner 1.24 µg/mL, one replicate, main component drawn): 0.436 | fitness ([2]; first compound 0.312 µg/mL, partner 2.48 µg/mL, one replicate, main component drawn): 0.0757 | fitness ([2]; first compound 0.625 µg/mL, partner 0.1562 µg/mL, one replicate, main component drawn): 0.0055 | fitness ([2]; first compound 0.625 µg/mL, partner 0.3125 µg/mL, one replicate, main component drawn): 0.0074 | fitness ([2]; first compound 0.625 µg/mL, partner 0.625 µg/mL, one replicate, main component drawn): 0.152 | fitness ([2]; first compound 1.25 µg/mL, partner 0.1562 µg/mL, one replicate, main component drawn): 0.0152 | fitness ([2]; first compound 1.25 µg/mL, partner 0.3125 µg/mL, one replicate, main component drawn): 0.0026 | fitness ([2]; first compound 1.25 µg/mL, partner 0.625 µg/mL, one replicate, main component drawn): 0.0074 | fitness ([2]; first compound 2.5 µg/mL, partner 0.1562 µg/mL, one replicate, main component drawn): 0.0359 | fitness ([2]; first compound 2.5 µg/mL, partner 0.3125 µg/mL, one replicate, main component drawn): 0.0126 | fitness ([2]; first compound 2.5 µg/mL, partner 0.625 µg/mL, one replicate, main component drawn): 0.0149 | Bliss interaction score ([4]; main component drawn): -0.0867 | Bliss interaction score ([5]; main component drawn): -0.0684 | Bliss interaction score ([6]; main component drawn): -0.0611 | Bliss interaction score ([7]; main component drawn): -0.0543
